Tests used:
[1] = Particle size of the granular carbohydrate compounds used; format: physicochemical; conditions: granular carbohydrate compound as used
Description: The term “Dav” means an average particle diameter (Dav). In the table, the term “D10” means the particle diameter (D10 value) of the particle at the position of 10% when counted from the smallest size zero (minimum) to 100% (maximum) of the particle diameter in a particle diameter distribution. The term “D50” means a certain particle diameter (D50 value) when amount of a larger side becomes equal to amount of a smaller side of the particle diameters divided into two a powder from the certain particle diameter. The term “D90” means the particle diameter (D90 value) of the particle at the position of 90% when counted from the smallest size zero (minimum) to 100% (maximum) of the particle diameter in the particle diameter distribution. The same definitions shall apply to following tables.

[2] = Particle diameter distribution by dynamic light scattering photon correlation method (Delsa Nano); format: physicochemical; conditions: starting organic compound powder before mixing/milling
Description: The term “average particle diameter” used in present specification means a mathematical average diameter (here, defined as the Dav value) in the particle diameter distribution as measured by a dynamic light scattering photon correlation method. The term “50%-diameter” (defined as median diameter or the D50 value) means a certain particle diameter when amount of a larger side becomes equal to amount of a smaller side of the particle diameters divided into two a powder from the certain particle diameter. The term “90%-diameter” (D90 value) means the particle diameter of the particle at the position of 90% when counted from the smallest size zero (minimum) to 100% (maximum) of the particle diameter in the particle diameter distribution as measured by the above-mentioned measurement method. The term “10%-diameter” (D10 value) means the particle diameter of the particle at the position of 10% when counted from the smallest size zero (minimum) to 100% (maximum) of the particle diameter in the particle diameter distribution as measured by the above-mentioned measurement method. […]

Row | Particle Size D10 [1] [μm] | Particle Size D50 [1] [μm] | Particle Size D90 [1] [μm] | Particle Size Dav [1] [μm] | Particle diameter distribution, D10, before milling [2] [nm] | Particle diameter distribution, D50, before milling [2] [nm] | Particle diameter distribution, D90, before milling [2] [nm] | Particle diameter distribution, Dav (average particle diameter), before milling [2] [nm] | Compound
1 | 7 | 20 | 50 | 25 |  |  |  |  | OC[C@H]1O[C@H](O[C@H]2O[C@H](CO)[C@@H](O)[C@H](O)[C@H]2O)[C@H](O)[C@@H](O)[C@@H]1O [Trehalose, trehalose]
2 | 383 | 615 | 912 | 631 |  |  |  |  | OC[C@@H](O)[C@H](O)[C@@H](O)CO [Xylitol, xylitol]
3 |  |  |  |  | 2277 | 6872 | 22850 | 10160 | CC[C@H]1OC(=O)[C@H](C)[C@@H](O[C@H]2C[C@@](C)(OC)[C@@H](O)[C@H](C)O2)[C@H](C)[C@@H](O[C@@H]2O[C@H](C)C[C@H](N(C)C)[C@H]2O)[C@](C)(OC)C[C@@H](C)C(=O)[C@H](C)[C@@H](O)[C@]1(C)O [clarithromycin powder, clarithromycin]
4 |  |  |  |  | 1389 | 2636 | 5709 | 3148 | CC(=O)[C@@]1(O)CC[C@H]2[C@@H]3C[C@H](C)C4=CC(=O)C=C[C@]4(C)[C@@]3(F)[C@@H](O)C[C@@]21C [fluorometholone powder, fluorometholone]
5 |  |  |  |  | 4422 | 15070 | 33850 | 17270 | COc1cc(/C=C/C(=O)CC(=O)/C=C/c2ccc(O)c(OC)c2)ccc1O [synthetic curcumin powder, curcumin]
6 | 16 | 38 | 63 | 38 |  |  |  |  | dextrin

More lines, now with the values behind:

Row | Compound | Particle Size D10 [1] [μm] | Particle Size D50 [1] [μm] | Particle Size D90 [1] [μm] | Particle Size Dav [1] [μm] | Particle diameter distribution, D10, before milling [2] [nm] | Particle diameter distribution, D50, before milling [2] [nm] | Particle diameter distribution, D90, before milling [2] [nm] | Particle diameter distribution, Dav (average particle diameter), before milling [2] [nm]
7 | O=C[C@H](O)[C@@H](O)[C@H](O[C@@H]1O[C@H](CO)[C@@H](O)[C@H](O)[C@H]1O)[C@H](O)CO [Cellobiose, cellobiose] | 7 | 38 | 76 | 41 |  |  |  | 
8 | OC[C@@H](O)[C@@H](O)CO [Erythritol, erythritol] | 63 | 138 | 237 | 147 |  |  |  | 
9 | O=C(CO)[C@@H](O)[C@H](O)[C@H](O)CO [Fructose, fructose] | 158 | 311 | 566 | 339 |  |  |  | 
10 | O[C@H]1[C@H](O)[C@@H](O)[C@H](O)[C@@H](O)[C@H]1O [Inositol, inositol] | 116 | 247 | 496 | 280 |  |  |  | 
11 | O.OC[C@H]1O[C@@H](O[C@H]2[C@H](O)[C@@H](O)C(O)O[C@@H]2CO)[C@H](O)[C@@H](O)[C@H]1O (stereo partly shown) [Lactose monohydrate, lactose monohydrate] | 3 | 20 |  | 45 |  |  |  | 
12 | OC[C@@H](O)[C@@H](O[C@H]1O[C@H](CO)[C@@H](O)[C@H](O)[C@H]1O)[C@H](O)[C@@H](O)CO [Maltitol, maltitol] | 7 | 30 | 64 | 33 |  |  |  | 
13 | OC[C@@H](O)[C@@H](O)[C@H](O)[C@H](O)CO [Mannitol, D-(−)-mannitol] | 24 | 66 | 144 | 79 |  |  |  | 
14 | OC[C@@H](O)[C@@H](O)[C@H](O)[C@@H](O)CO [Sorbitol, sorbitol] | 75 | 154 | 249 | 159 |  |  |  | 
